The test system of one assay is normal WI-38 cells. Kind of assay: Cell viability of normal WI-38 cells after 72 hours of compound treatment. It is filed as cell-based. Conditions: Homo sapiens, cell viability at 72 hours post-treatment. The procedure:
(§1) Normal WI-38 cells and IR-induced senescent cells were incubated with increasing concentrations of compounds of Formula (I). At 72 hours post-treatment cell viability was measured and ED50was calculated. Table 1 depicts the ED50 values of the compounds of Formula (I) against normal and IR-induced senescent cells.

The subject of assay [1] is IR-induced senescent cells (IR-SC WI-38). Kind of assay: Cell viability of IR-induced senescent WI-38 cells after 72 hours of compound treatment. It is filed as cell-based. Conditions: for EC50: Homo sapiens, IR-induced senescent WI-38 cells, cell viability at 72 hours post-treatment; for selective killing of senescent WI38 cells over normal WI38 cells: ionizing radiation (IR, 10 Gy) induced senescent vs normal WI38 cells, viability at 72 hours, percent of control. The procedure: as §1

As to `C=CC(=O)N1OCC=CC1=O` [No 12], the EC50 in the assay on normal WI-38 cells is 16.3 µM; in assay [1], 5.7 µM.

As for `O=C1C(Cl)=CCCN1S(=O)(=O)/C=C/c1ccccc1` [No 15], the values for the concentration giving a half-maximal response (EC50) (with normal WI-38 cells; in assay [1]) were 8.8 µM and 0.94 µM, respectively.

As to `COc1ccc(/C=C/C(=O)N2CCCC=C(Cl)C2=O)cc1` [No 10], the values for the EC50 (in the assay on normal WI-38 cells; in assay [1]) were 1.5 µM and 0.16 µM, respectively.

In the case of `COc1cc(/C=C/C(=O)N2CCC=C(F)C2=O)cc(OC)c1OC` [No 1], the 50% effective concentration (EC50) in the assay with normal WI-38 cells worked out at 12.1 µM; in assay [1] it was 15.3 µM.

Consider `COc1cc(/C=C/C(=O)N2OCC=CC2=O)cc(OC)c1OC` [XZ-12037, (E)-2-(β-(3,4,5-trimethoxyphenyl)acryloyl)-2H-1,2-oxazin-3(6H)-one], for which the “selective killing of senescent WI38 cells over normal WI38 cells” value in assay [1] is on record as “selectively kills senescent WI38 cells over normal WI38 cells”.

With `COc1cc(/C=C/C(=O)N2CCC=C(Br)C2=O)cc(OC)c1OC` [No 3], the EC50 in the assay on normal WI-38 cells was 5.4 µM; in assay [1] it was 0.52 µM.

For `O=C1C(Br)=CCCN1S(=O)(=O)/C=C/c1ccccc1` [No 16], the EC50 with normal WI-38 cells turned out to be 28.1 µM; in assay [1], 2.8 µM.

For the compound `COc1cc(/C=C/C(=O)N2CCCC=C(Cl)C2=O)cc(OC)c1OC` [No 5], the EC50 in the assay with normal WI-38 cells came to 1.7 µM; in assay [1], 0.45 µM.

With `COc1ccc(/C=C/C(=O)N2CCC=C(Br)C2=O)cc1` [No 9], the EC50 with normal WI-38 cells is 1.1 µM; in assay [1] it was 0.63 µM.

In the case of `O=C1C(Br)=CCCCN1C(=O)c1cc2ccccc2oc1=O` [No 14], the figures for the EC50 (with normal WI-38 cells; in assay [1]) were 5 µM and 4 µM, respectively.

For `COc1ccc(/C=C/C(=O)N2CCCC=C(Br)C2=O)cc1` [No 11], the results for the concentration giving a half-maximal response (EC50) (in the assay on normal WI-38 cells; in assay [1]) were 5.8 µM and 1.3 µM, respectively.

As to `COc1cc(/C=C/C(=O)N2CCCC=C(Br)C2=O)cc(OC)c1OC` [No 6], the EC50 worked out at 3.6 µM in the assay with normal WI-38 cells and 0.56 µM in assay [1].

With `COc1cc(/C=C/C(=O)N2OCC=CC2=O)cc(OC)c1OC` [No 7], the EC50 worked out at 47.7 µM in the assay on normal WI-38 cells and 8 µM in assay [1].

In the case of `COc1cc(C(Cl)=CC(=O)N2CCCC=CC2=O)cc(OC)c1OC` [XZ-12089, (E)-β-chloro-1-(β-(3,4,5-trimethoxyphenyl)acryloyl)-1,5,6,7-tetrahydro-2H-azepin-2-one], in assay [1], the “selective killing of senescent WI38 cells over normal WI38 cells” value is on record as “selectively kills senescent WI38 cells over normal WI38 cells”.

For `COc1ccc(/C=C/C(=O)N2CCC=C(Cl)C2=O)cc1` [No 8], the values for the concentration giving a half-maximal response (EC50) (with normal WI-38 cells; in assay [1]) were 0.35 µM and 0.51 µM, respectively.

For `COc1cc(/C=C/C(=O)N2CCC=C(Cl)C2=O)cc(OC)c1OC` [No 2], the EC50 is 5.3 µM with normal WI-38 cells and 0.65 µM in assay [1].

Turning to `O=C1C(Br)=CCCN1C(=O)c1cc2ccccc2oc1=O` [No 13], the EC50 in the assay with normal WI-38 cells was found to be 6.2 µM; in assay [1] it was 1.7 µM.

As for `COc1cc(/C=C/C(=O)N2CCC=C(I)C2=O)cc(OC)c1OC` [No 4], the half-maximal effective concentration (EC50) in the assay on normal WI-38 cells came to 18.3 µM; in assay [1], 2.3 µM.

Values taken from patent publication US12084423B2, “Piperlongumine analogues and uses thereof” (BioVentures, LLC, priority 2018, dated 2024).
